In BindingDB's records for doi:10.1016/j.ejmech.2020.113121 (Virginia Tech, 2021):

Assay: Inhibition of recombinant human Sphk2 expressed in yeast strain KYA1 assessed as increase in yeast growth measured after 24 hrs

CCCCCCCCCn1ccc2cc(-c3noc([C@@H]4CCCN4C(=N)N)n3)ccc21
EC50: 170 nM
